# Activity calls are given as the source filed them.
# Experiments:
# [1] = biological target: Beta-2 adrenergic receptor (Homo sapiens, UniProt P07550); test: beta2AR agonists driving receptor internalization, dose response, cell-based, FAP fluorogen, flow cytometry, cherry pick 1 (AID 588763); format: functional
# [2] = biological target: T1, Sentrin-specific protease 8 (Homo sapiens, UniProt Q96LD8); format: functional;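 also: luminescence read-out of SENP8 inhibition, dose-response confirmation following an ultra-high-throughput screen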
# T1 sequence (Q96LD8 whole entry): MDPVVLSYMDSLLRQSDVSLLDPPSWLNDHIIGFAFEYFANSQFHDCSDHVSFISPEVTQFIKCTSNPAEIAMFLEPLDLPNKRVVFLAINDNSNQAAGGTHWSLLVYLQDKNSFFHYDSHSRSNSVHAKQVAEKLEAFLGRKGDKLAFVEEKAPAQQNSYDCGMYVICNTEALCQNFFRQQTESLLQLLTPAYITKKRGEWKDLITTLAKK
# [3] = biological target: T2, Sentrin-specific protease 6 (Homo sapiens, UniProt Q9GZR1); format: functional;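 also: Luminescence-based dose-response confirmatory assay of SENP6 inhibition, following up an ultra-high-throughput screen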
# T2 sequence (Q9GZR1 whole entry): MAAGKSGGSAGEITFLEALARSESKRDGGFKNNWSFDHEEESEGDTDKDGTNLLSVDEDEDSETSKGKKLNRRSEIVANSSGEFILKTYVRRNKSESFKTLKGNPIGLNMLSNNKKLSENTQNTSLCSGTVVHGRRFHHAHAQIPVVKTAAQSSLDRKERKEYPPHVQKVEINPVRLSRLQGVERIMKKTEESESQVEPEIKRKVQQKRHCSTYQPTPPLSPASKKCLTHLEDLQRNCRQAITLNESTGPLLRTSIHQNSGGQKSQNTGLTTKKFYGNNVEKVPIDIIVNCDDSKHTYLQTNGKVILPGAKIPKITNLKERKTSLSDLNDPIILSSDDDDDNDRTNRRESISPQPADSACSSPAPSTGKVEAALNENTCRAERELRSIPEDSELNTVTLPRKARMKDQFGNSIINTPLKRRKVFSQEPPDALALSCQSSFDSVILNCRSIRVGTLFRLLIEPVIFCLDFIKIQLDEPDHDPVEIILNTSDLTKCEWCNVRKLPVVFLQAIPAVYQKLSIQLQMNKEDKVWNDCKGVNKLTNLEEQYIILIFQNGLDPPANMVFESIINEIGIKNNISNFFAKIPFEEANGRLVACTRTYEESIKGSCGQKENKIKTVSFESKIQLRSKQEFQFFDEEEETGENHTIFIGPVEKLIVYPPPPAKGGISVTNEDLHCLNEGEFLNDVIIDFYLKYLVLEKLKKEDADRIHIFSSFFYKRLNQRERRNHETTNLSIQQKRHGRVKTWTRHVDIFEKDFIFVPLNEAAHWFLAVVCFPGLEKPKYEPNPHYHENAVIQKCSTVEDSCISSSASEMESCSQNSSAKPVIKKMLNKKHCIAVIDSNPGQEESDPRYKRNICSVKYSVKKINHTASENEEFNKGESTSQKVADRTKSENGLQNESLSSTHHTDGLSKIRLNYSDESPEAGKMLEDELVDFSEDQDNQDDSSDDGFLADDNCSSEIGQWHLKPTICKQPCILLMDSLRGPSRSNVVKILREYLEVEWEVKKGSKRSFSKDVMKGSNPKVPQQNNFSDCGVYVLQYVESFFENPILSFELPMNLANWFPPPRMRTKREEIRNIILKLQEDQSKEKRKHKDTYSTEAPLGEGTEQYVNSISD
# [4] = biological target: T3, G-protein coupled receptor 35 (Homo sapiens, UniProt Q9HC97); test: GPR35 antagonists blocking zaprinast-driven arrestin recruitment, primary screen, imaging, U2OS, beta-arrestin-GFP, zaprinast agonist (AID 2058); format: functional;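 also: antagonist potency meaning inhibition of agonist-induced arrestin redistribution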
# T3 sequence (Q9HC97 whole entry): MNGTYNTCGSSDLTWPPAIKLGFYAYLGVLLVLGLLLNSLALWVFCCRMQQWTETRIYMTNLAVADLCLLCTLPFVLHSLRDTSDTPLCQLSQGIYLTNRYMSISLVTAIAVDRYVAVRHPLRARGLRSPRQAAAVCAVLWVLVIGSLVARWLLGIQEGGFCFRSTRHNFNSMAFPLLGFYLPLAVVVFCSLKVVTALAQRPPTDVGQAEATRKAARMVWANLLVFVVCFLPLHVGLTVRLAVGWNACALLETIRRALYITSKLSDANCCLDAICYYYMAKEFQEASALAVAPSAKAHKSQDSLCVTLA
# [5] = biological target: T4, Sentrin-specific protease 7 (Homo sapiens, UniProt Q9BQF6); format: functional;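 also: Luminescence-based dose-response confirmation of ultra-high-throughput screening hits, measuring inhibition of SENP7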
# T4 sequence (Q9BQF6 whole entry): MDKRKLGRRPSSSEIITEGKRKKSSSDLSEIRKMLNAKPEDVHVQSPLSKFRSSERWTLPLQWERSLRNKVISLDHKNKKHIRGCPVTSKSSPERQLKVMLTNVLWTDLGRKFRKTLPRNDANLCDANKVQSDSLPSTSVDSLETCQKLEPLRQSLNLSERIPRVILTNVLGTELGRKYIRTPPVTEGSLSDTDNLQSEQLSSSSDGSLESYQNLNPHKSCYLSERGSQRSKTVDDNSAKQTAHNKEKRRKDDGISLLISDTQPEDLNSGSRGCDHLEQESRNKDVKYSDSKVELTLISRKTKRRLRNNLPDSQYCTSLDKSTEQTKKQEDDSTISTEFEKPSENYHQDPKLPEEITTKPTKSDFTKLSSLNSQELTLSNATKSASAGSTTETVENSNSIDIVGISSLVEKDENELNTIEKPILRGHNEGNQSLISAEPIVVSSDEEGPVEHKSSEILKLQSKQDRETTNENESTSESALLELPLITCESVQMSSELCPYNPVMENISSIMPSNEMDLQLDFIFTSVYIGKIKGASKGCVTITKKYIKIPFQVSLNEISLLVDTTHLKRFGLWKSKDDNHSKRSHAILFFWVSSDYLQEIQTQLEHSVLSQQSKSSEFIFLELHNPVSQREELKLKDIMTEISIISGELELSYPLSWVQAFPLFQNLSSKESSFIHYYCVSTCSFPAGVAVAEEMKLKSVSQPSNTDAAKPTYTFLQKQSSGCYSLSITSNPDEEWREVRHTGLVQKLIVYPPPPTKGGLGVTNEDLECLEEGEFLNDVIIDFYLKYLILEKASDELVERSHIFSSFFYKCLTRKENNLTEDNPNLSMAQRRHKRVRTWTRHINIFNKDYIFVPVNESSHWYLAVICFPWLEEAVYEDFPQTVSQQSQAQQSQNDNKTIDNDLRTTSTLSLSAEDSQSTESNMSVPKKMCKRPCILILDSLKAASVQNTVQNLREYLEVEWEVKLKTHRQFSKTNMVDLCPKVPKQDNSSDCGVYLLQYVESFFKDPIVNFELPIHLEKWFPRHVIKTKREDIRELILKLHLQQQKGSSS
# Caspase-3 = biological target: T5, Caspase-3 (Homo sapiens, UniProt P42574); format: functional;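 also: Dose-response selectivity test against caspase-3 for candidate inhibitors of sentrin-specific proteases (SENPs)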
# T5 sequence (P42574 whole entry): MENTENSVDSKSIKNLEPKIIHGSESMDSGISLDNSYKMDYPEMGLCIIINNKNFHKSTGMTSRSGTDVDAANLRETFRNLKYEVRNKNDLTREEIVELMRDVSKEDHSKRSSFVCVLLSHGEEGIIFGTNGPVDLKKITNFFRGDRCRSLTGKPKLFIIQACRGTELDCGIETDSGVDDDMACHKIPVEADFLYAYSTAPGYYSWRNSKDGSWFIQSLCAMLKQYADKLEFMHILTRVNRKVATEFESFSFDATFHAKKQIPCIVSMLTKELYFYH
# [6] = biological target: T3, G-protein coupled receptor 35; test: SAR Analysis for the identification of Selective Antagonists of ERK1/2 Activity in GPR35-Overexpressing U2OS Cells. [Related pubchem assays: 2079, 2058 ]; format: functional, cell-based
# [7] = biological target: G-protein coupled receptor 55 (Homo sapiens, UniProt Q9Y2T6); test: GPR55 antagonists, SAR follow-up, counter-screen for GPR35 antagonist project, imaging, image-based (AID 2397); format: functional
# Chain of G-protein coupled receptor 55 (Q9Y2T6 whole entry): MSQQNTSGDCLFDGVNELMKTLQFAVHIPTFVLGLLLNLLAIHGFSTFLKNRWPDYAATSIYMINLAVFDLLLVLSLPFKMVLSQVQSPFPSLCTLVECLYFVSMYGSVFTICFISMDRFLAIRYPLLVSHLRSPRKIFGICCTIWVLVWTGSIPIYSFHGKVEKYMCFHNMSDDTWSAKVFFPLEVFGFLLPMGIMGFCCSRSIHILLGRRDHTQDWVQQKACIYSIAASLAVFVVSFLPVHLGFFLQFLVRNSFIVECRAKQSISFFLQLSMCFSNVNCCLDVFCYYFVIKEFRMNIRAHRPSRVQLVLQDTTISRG
# [8] = insulin promoter down-regulators in MIN6 cells, imaging, high-content screening, mouse beta cells (AID 1628); format: functional
# [9] = cytotoxicity in MIN6 insulinoma cells, dose response, cytotoxicity control, cell-based, mouse insulinoma (AID 2122); format: functional;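 also: confirmatory high-throughput counterscreen run to flag cytotoxic compounds; mouse MIN-6 beta cells carrying an insulin promoter eGFP reporter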
# Cytochrome P450 3A4 = Cytochrome P450 3A4 (Homo sapiens, UniProt P08684); conditions: Potency;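 also: confirmatory qHTS run detecting inhibitors and substrates of CYP3A4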
# Chain of Cytochrome P450 3A4 (P08684 whole entry): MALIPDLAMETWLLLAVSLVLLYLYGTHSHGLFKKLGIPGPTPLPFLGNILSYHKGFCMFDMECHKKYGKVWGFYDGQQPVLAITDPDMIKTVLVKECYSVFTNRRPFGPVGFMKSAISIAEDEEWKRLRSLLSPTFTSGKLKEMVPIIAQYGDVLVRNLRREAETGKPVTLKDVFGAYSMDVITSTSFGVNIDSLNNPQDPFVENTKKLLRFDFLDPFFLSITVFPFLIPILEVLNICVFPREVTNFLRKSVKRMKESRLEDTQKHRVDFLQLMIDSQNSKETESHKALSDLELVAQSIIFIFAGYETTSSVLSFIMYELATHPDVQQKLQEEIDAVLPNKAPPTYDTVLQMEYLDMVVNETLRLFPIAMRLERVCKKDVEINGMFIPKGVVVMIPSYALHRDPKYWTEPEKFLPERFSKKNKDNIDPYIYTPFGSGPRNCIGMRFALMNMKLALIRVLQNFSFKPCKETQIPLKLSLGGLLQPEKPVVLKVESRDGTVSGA
# [10] = biological target: Voltage-gated inwardly rectifying potassium channel KCNH2 (Homo sapiens, UniProt Q12809); conditions: Potency;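 also: confirmatory quantitative high-throughput screen measuring inhibition of hERG channel activity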
# Chain of Voltage-gated inwardly rectifying potassium channel KCNH2 (Q12809 whole entry): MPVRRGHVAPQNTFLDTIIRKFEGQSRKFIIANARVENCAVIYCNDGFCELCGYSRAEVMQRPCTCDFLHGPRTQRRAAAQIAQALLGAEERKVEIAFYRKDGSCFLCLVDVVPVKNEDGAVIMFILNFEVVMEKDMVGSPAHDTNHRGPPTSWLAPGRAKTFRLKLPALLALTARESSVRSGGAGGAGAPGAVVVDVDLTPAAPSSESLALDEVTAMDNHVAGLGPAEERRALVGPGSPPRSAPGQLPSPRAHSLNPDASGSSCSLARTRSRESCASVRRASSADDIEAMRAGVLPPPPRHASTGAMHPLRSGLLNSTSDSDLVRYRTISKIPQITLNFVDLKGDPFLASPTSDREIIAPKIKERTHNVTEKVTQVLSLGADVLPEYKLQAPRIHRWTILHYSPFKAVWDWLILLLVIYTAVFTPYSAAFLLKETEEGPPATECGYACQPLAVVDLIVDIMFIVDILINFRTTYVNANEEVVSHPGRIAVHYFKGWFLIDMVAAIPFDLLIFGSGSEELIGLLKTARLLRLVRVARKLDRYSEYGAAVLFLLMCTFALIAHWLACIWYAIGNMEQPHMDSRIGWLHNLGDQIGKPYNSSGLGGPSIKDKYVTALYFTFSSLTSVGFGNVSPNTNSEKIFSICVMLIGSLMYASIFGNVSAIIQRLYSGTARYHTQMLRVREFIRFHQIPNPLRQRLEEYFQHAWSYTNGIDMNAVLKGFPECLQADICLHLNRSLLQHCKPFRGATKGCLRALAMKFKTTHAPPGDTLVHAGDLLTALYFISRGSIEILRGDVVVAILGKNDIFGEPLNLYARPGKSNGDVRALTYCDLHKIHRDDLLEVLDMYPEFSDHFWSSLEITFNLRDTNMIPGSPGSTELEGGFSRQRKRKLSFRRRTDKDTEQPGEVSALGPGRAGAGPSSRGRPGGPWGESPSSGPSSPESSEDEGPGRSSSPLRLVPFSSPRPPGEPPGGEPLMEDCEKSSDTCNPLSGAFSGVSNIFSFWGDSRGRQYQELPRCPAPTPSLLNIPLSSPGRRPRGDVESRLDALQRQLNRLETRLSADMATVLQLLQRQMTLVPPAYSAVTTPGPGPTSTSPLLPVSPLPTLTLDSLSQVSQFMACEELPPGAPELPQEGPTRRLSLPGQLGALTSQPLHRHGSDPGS
# [11] = biological target: 72 kDa type IV collagenase (Homo sapiens, UniProt P08253); test: Dose Response validation of uHTS RPN11 inhibitor hits using a MMP-2 Fluorescence assay.; format: functional
# Chain of 72 kDa type IV collagenase (P08253 whole entry): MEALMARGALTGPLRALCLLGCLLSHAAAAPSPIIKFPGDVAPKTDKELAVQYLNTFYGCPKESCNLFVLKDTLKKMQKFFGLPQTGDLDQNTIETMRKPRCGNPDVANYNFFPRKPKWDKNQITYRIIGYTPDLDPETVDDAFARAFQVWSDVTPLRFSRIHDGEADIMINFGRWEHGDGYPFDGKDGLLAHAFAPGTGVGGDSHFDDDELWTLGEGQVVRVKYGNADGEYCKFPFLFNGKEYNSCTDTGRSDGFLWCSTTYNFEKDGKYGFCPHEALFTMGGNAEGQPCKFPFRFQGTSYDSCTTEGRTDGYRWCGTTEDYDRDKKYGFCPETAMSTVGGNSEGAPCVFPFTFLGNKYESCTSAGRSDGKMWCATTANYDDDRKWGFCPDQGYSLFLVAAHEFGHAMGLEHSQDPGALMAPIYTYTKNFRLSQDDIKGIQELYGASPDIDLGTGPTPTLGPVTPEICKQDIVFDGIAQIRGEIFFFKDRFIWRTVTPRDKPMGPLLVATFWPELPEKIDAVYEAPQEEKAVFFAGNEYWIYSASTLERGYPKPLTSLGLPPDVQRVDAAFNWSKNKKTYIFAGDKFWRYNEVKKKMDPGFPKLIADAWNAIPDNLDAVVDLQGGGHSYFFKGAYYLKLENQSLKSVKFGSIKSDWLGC
# Prothrombin = Prothrombin (Bos taurus, UniProt P00735); test: thrombin inhibition, dose response, biochemical, fluorescence polarization, uHTS hits (AID 602369); format: functional
# [12] = biological target: FAD-linked sulfhydryl oxidase ALR (Homo sapiens, UniProt P55789); test: inhibitors of human ALR sulfhydryl oxidase, dose response, biochemical, H2O2 detection, luminescence, cherry-pick (AID 493248)
# Chain of FAD-linked sulfhydryl oxidase ALR (P55789 whole entry): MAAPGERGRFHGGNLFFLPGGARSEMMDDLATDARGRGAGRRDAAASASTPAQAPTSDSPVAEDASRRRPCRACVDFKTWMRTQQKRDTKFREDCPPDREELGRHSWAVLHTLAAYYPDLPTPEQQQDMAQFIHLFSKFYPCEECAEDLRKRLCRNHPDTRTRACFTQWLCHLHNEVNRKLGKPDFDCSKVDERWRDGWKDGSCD
# [13] = biological target: 26S proteasome non-ATPase regulatory subunit 14 (Homo sapiens, UniProt O00487); test: inhibition of proteasome subunit RPN11 – biochemical, fluorescence polarization, uHTS hits, confirmation (AID 602368); format: functional
# Chain of 26S proteasome non-ATPase regulatory subunit 14 (O00487 whole entry): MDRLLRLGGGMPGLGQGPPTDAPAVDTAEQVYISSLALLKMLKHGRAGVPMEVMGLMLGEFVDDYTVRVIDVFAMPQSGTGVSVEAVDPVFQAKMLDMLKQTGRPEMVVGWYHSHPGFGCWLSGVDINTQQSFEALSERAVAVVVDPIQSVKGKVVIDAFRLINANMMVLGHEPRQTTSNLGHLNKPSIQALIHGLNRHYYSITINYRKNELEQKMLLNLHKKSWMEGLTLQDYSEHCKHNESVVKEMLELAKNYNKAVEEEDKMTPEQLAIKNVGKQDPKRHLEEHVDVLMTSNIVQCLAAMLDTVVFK
# [14] = microbe, parasite or virus in culture; format: functional; conditions: Mycobacterium tuberculosis
# [15] = biological target: 5-hydroxytryptamine receptor 5A (Homo sapiens, UniProt P47898); test: Counterscreen for agonists of OPRM1-OPRD1 heterodimerization: luminescence-based cell-based high throughput dose response assay to identify agonists of 5-hydroxytryptamine (serotonin) 5A receptor (HTR5A). [Related pubchem assays (depositor defined):AID504326, AID504355, AID504692, AID504904, AID504905]; format: functional
# Chain of 5-hydroxytryptamine receptor 5A (P47898 whole entry): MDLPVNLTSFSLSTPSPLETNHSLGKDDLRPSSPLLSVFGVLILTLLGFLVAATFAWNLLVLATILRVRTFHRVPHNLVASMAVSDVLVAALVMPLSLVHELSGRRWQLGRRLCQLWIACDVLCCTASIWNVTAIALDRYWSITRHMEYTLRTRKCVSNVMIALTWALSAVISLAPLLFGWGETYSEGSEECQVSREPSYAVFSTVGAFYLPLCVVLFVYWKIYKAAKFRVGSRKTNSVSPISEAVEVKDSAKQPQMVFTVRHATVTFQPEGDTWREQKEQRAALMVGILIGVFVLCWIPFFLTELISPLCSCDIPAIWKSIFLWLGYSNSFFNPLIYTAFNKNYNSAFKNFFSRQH
# [16] = biological target: Delta-type opioid receptor (Homo sapiens, UniProt P41143); test: Counterscreen for agonists of heterodimerization of the mu 1 (OPRM1) and delta 1 (OPRD1) opioid receptors: Luminescence-based cell-based high throughput dose response assay to identify agonists of OPRD1 homodimerization. [Related pubchem assays (depositor defined):AID504326, AID504355, AID504692, AID504904, AID504905]; format: functional
# Chain of Delta-type opioid receptor (P41143 whole entry): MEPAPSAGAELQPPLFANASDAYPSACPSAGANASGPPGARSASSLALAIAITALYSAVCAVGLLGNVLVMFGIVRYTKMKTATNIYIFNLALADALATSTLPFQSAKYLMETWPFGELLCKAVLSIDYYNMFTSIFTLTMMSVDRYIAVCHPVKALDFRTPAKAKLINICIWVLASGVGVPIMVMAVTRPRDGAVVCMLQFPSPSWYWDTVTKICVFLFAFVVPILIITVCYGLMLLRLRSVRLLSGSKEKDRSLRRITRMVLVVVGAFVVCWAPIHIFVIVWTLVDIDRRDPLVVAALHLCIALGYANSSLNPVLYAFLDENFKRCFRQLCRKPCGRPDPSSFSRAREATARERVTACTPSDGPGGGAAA
# Mu-type opioid receptor = Mu-type opioid receptor (Homo sapiens, UniProt P35372); test: Counterscreen for agonists of heterodimerization of the mu 1 (OPRM1) and delta 1 (OPRD1) opioid receptors: Luminescence-based cell-based high throughput dose response assay to identify agonists of OPRM1 homodimerization.; format: functional;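 also: U2OS cells expressing OPRM1 and beta-arrestin as split beta-galactosidase partners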
# Chain of Mu-type opioid receptor (P35372 whole entry, the tested form may be a part): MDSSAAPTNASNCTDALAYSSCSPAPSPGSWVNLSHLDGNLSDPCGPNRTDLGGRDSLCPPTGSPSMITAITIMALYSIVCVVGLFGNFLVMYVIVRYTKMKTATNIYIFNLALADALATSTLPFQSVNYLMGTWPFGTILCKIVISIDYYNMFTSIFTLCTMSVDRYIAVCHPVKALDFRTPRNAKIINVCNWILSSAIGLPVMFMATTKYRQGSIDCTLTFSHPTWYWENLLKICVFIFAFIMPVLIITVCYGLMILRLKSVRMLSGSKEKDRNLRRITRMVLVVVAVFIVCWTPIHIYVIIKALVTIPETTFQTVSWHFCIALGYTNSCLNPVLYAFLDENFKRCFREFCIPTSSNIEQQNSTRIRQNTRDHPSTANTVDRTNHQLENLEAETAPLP
# [17] = biological target: Carboxy-terminal domain RNA polymerase II polypeptide A small phosphatase 1 (Homo sapiens, UniProt Q9GZU7); test: inhibitors of CTDSP1, concentration-response testing, biochemical assay, absorbance-based, actives from ultra-high-throughput screening (AID 540297); format: functional
# Chain of Carboxy-terminal domain RNA polymerase II polypeptide A small phosphatase 1 (Q9GZU7 whole entry, the tested form may be a part): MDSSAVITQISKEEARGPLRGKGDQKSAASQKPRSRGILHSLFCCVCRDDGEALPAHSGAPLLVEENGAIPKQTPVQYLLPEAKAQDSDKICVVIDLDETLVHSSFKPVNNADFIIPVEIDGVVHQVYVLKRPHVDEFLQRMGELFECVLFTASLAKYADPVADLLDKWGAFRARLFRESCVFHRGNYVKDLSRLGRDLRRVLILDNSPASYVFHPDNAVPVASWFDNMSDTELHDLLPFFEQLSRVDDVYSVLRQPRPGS
# [18] = C. albicans growth with fluconazole, confirmation, fluorescence, retest (AID 2467); format: functional, cell-based
# [19] = inhibitors of intracellular T. cruzi replication, confirmation, NIH3T3 host cells, beta-gal luminescence (AID 2044); format: functional, cell-based;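 also: intracellular parasites grown in NIH/3T3 mouse fibroblasts as host cells; luminescent beta-galactosidase reporter signal from transgenic T. cruzi replicating inside host cells; inhibitors lower the luminescence signal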
# [20] = NIH-3T3 fibroblast cytotoxicity, dose response, cytotoxicity control, cell-based, fluorescence, Alamar Blue, secondary assay (AID 2327); format: functional;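 also: NIH-3T3 mouse fibroblasts cultured with fluconazole at 8 µg/mL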
# [21] = cytotoxicity toward NIH3T3 fibroblasts, dose response, counter-screen, cell-based, ATP luminescence, mouse fibroblasts (AID 2010); format: functional;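 also: cells exposed to compound for about 90 hours before reading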
# [22] = biological target: T6, Short transient receptor potential channel 4 (Mus musculus, UniProt Q9QUQ5); test: mouse TRPC4 channel activators, dose response, cell-based, HEK293 TRPC4/mu-opioid, Fluo-4 calcium (AID 434937); format: functional
# T6 sequence (Q9QUQ5 whole entry): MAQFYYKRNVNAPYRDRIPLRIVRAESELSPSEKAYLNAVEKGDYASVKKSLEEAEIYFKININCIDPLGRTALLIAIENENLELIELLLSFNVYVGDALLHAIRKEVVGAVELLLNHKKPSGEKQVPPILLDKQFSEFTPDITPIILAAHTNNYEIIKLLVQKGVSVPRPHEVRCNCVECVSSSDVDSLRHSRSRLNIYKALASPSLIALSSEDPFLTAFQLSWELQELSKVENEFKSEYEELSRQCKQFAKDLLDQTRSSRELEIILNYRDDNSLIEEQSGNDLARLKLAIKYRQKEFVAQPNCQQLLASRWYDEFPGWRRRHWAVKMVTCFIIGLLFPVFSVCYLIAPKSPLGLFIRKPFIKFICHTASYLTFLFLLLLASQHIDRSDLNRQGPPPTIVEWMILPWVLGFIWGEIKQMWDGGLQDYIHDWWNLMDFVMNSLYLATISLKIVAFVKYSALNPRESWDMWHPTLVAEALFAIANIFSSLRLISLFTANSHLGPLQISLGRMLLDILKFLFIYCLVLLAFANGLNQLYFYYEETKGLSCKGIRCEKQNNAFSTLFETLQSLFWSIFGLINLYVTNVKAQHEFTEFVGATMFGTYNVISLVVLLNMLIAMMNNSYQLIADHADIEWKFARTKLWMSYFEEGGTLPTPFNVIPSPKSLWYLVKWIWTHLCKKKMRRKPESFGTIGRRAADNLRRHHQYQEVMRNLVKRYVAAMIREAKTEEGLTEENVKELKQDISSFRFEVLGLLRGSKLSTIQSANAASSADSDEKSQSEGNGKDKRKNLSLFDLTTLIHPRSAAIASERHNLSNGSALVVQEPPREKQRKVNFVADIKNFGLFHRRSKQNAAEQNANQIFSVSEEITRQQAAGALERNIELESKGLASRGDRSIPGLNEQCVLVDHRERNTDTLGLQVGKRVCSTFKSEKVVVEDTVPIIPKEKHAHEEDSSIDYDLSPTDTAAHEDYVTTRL
structure (smiles),measurement,setting,value
COc1ccc(CNC(=O)CCCCCNc2nc(S)nc3ccccc23)cc1,EC50,[1],0.0255 µM (active)
O=C(CCCN1C(=O)S/C(=C/c2ccccc2)C1=S)Nc1ccc(C(=O)O)cc1,IC50,[2],29.8 µM (active)
same,IC50,[3],23.7 µM (active)
same,IC50,[4],1.51 µM (active)
same,IC50,[5],21.3 µM (active)
same,IC50,Caspase-3,23.5 µM (active)
same,IC50,[6],1.45 µM (active)
same,IC50,[7],> 32 µM (inactive)
CCOc1ccc(C(O)Cn2c(=N)n(CCN3CCCCC3)c3ccccc32)cc1 (configuration not stated),IC50,[8],2.55 µM (active)
same,IC50,[9],5.18 µM (active)
CCN(CC)c1ccc(N)cc1,AC50,Cytochrome P450 3A4,25.1 µM (inconclusive)
same,AC50,[10],10 µM (inconclusive)
same,IC50,[11],> 100 µM (inactive)
same,IC50,Prothrombin,5.11 µM (active)
same,AC50,[12],6.78 µM (active)
same,IC50,[13],4.69 µM (active)
same,CC50,[14],27.9 µM (active)
COc1ccc(-n2c3c(cc(C(=O)NNc4ccccc4C)c2=O)C(=O)CC(C)(C)C3)cc1,EC50,[15],> 92.5 µM (inactive)
same,EC50,[16],> 92.5 µM (inactive)
same,EC50,Mu-type opioid receptor,14.5 µM (inactive)
Cc1cnc(C(=O)OCc2nc(O)c3sccc3n2)cn1,IC50,[17],7.9 µM (active)
CCC(C)OC(=O)C[N+](C)(C)CCOC1CC2CCC1(C)C2(C)C (configuration not stated),EC50,[18],4.36 µM (active)
same,EC50,[19],0.341 µM (active)
same,EC50,[20],> 150 µM (inconclusive)
same,IC50,[8],0.418 µM (active)
same,IC50,[9],< 0.25 µM (active)
same,EC50,[21],> 60 µM (not active)
OCC1(CC2CCCCO2)CCN(Cc2ccccc2-c2ccco2)CC1 (configuration not stated),EC50,[22],0.668 µM (active)
same,EC50,[15],> 92.4 µM (inactive)
same,EC50,[16],> 92.4 µM (inactive)
same,EC50,Mu-type opioid receptor,> 92.4 µM (inactive)
CCC(C)(C)C(=O)O [DIMEBUTIC ACID],AC50,[10],12.6 µM (inconclusive)

# Reference: ChEMBL document CHEMBL1201862, “PubChem BioAssay data set” (2004)
